Assay results published in the CheMixHub viscosity set.

Experiment: xn = mol fraction of the nth substance listed

C=Cc1ccccc1 + CCCCCO
viscosity [mPa·s], 101.33 kPa
Details | x1 = 0.1003 | x1 = 0.1994 | x1 = 0.3003 | x1 = 0.3977 | x1 = 0.4969 | x1 = 0.5963 | x1 = 0.7027 | x1 = 0.8026 | x1 = 0.9011
298.15 K | 2.791 | 2.141 | 1.602 | 1.32 | 1.112 | 0.984 | 0.859 | 0.783 | 0.737
303.15 K | 2.472 | 1.984 | 1.404 | 1.175 | 1.013 | 0.901 | 0.793 | 0.741 | 0.692
308.15 K | 2.166 | 1.638 | 1.25 | 1.046 | 0.915 | 0.82 | 0.722 | 0.68 | 0.637

CC(=O)c1ccc(Cl)cc1 + CCCCCCO
303.15 K, 101 kPa
Details | viscosity [mPa·s]
x1 = 0.0521 | 3.667
x1 = 0.1009 | 3.442
x1 = 0.1668 | 3.212
x1 = 0.2325 | 2.982
x1 = 0.3002 | 2.791
x1 = 0.4028 | 2.603
x1 = 0.5001 | 2.511
x1 = 0.5708 | 2.462
x1 = 0.641 | 2.437
x1 = 0.6998 | 2.428
x1 = 0.7655 | 2.448
x1 = 0.8376 | 2.502
x1 = 0.9007 | 2.589
x1 = 0.9513 | 2.717

C=Cc1ccccc1 + c1ccccc1
viscosity [mPa·s], 101 kPa
Details | x2 = 0.1362 | x2 = 0.2498 | x2 = 0.3047 | x2 = 0.4109 | x2 = 0.5207 | x2 = 0.5834 | x2 = 0.7114 | x2 = 0.7924 | x2 = 0.8831
298.15 K | 0.672 | 0.654 | 0.645 | 0.633 | 0.623 | 0.618 | 0.608 | 0.605 | 0.604
303.15 K | 0.629 | 0.61 | 0.6 | 0.589 | 0.577 | 0.57 | 0.56 | 0.556 | 0.555
308.15 K | 0.59 | 0.57 | 0.56 | 0.548 | 0.537 | 0.53 | 0.52 | 0.515 | 0.514
313.15 K | 0.54 | 0.518 | 0.51 | 0.499 | 0.487 | 0.48 | 0.47 | 0.466 | 0.465

CCC(C)(C)OC + CCCO
298.15 K, 101.33 kPa
Details | viscosity [mPa·s]
x1 = 0.0142 | 1.889
x1 = 0.0405 | 1.759
x1 = 0.0642 | 1.647
x1 = 0.0889 | 1.548
x1 = 0.1148 | 1.461
x1 = 0.152 | 1.33
x1 = 0.2075 | 1.18
x1 = 0.2876 | 1.002
x1 = 0.289 | 0.999
x1 = 0.3381 | 0.912
x1 = 0.3924 | 0.833
x1 = 0.4452 | 0.767
x1 = 0.489 | 0.72
x1 = 0.5363 | 0.677
x1 = 0.5867 | 0.633
x1 = 0.645 | 0.594
x1 = 0.6933 | 0.564
x1 = 0.7588 | 0.53
x1 = 0.8347 | 0.496
x1 = 0.9093 | 0.455
x1 = 0.947 | 0.454
